Blank lines part the entries; values can stand above or below the molecule they belong to.
Legend:
S1S3 [1] = target: T1, S1S3 (Homo sapiens, UniProt Q3T906); assay: UDP-[3H]GlcNAc radiolabel transfer assay, QAE-Sephadex; format: biochemical; conditions: saturating UDP-[3H]GlcNAc; Mn2+ and Mg2+, pH 7.4, 37 °C (general assay); mean of two assays
T1 construct: gene GNPTAB; soluble truncation, no TM domains; S1 (233 aa) replaced by 29-aa Dictyostelium discoideum PTase linker; Notch1 to S1P site deleted, GGSGG linker; melittin signal, N-HA, C-HPC4; secreted from T. ni cells; single chain, dimer

S1S3 [2] = target: T2, S1S3 (Homo sapiens, UniProt Q3T906, H959F); assay: PTase activity assay, UDP-[3H]GlcNAc; format: biochemical; conditions: H279 = H959 of full-length hPTase
T2 construct: gene GNPTAB; soluble truncation, no TM domains; S1 (233 aa) replaced by 29-aa Dictyostelium discoideum PTase linker; Notch1 to S1P site deleted, GGSGG linker; melittin signal, N-HA, C-HPC4; secreted from T. ni cells; single chain, dimer

Dm PTase = target: T3, Dm PTase (Drosophila melanogaster, UniProt A1Z7S7); assay: PTase activity assay, UDP-[3H]GlcNAc; format: biochemical; conditions: donor, labelled compound; acceptor 100 mM α-MM
T3 construct: gene Gnptab; soluble, without N- and C-terminal TM domains and cytosolic tails; melittin signal, N-HA, C-HPC4; secreted from T. ni cells; single chain; H375 and F378 correspond to human H956 and H959
T3 sequence (A1Z7S7 47-630 limits assumed): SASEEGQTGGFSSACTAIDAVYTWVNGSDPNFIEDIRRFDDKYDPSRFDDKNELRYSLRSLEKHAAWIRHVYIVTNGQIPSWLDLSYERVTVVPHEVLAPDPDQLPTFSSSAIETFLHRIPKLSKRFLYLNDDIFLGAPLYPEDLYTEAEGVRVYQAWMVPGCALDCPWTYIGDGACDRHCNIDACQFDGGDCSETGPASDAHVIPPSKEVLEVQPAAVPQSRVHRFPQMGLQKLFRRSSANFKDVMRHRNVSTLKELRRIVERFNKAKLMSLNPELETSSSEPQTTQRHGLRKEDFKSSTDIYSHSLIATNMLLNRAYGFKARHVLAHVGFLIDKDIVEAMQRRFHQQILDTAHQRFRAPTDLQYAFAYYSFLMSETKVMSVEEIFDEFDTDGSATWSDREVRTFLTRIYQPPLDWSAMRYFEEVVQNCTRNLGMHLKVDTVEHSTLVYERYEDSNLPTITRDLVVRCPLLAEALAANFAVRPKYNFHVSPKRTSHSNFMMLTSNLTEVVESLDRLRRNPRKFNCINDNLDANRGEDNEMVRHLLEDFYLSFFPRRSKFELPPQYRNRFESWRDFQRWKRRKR

[3] = target: T4, hPTase-αβ (soluble full-length human GlcNAc-1-phosphotransferase) (Homo sapiens, UniProt Q3T906); assay: cryo-EM structure, […] Å; format: binding; conditions: 10 mM UDP-GlcNAc, 10 mM MnCl2, 6 h at 4 °C; donor site in the catalytic pocket with two Mn2+
T4 construct: gene GNPTAB; soluble secreted form of the alpha/beta precursor, cut by site-1 protease at K928/D929; no gamma subunit; dimer
T4 sequence (Q3T906 44-928 limits assumed): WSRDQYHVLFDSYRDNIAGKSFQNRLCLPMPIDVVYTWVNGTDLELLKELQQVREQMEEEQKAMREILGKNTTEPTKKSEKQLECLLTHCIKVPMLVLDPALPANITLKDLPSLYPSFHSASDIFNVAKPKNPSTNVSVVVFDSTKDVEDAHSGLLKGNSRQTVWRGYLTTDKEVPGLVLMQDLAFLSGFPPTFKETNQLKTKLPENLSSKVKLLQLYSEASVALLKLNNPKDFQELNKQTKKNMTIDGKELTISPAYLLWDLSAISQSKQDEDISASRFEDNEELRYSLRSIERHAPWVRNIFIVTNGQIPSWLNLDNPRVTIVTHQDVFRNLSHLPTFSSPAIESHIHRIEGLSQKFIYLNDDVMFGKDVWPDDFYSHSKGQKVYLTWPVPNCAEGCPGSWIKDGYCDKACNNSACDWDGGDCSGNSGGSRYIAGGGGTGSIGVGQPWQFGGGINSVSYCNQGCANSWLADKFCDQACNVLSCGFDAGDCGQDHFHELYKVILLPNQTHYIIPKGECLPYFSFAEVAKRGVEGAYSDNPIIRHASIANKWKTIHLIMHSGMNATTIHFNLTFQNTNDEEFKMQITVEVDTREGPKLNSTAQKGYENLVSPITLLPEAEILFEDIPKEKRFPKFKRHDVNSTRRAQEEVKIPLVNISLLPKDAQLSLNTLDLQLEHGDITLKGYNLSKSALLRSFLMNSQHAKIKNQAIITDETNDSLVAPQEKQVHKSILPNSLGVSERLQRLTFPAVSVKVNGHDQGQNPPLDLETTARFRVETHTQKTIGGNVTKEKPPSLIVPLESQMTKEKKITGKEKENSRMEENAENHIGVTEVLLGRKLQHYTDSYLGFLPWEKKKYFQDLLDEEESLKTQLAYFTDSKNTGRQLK
T4 sequence (Q3T906 929-1214 limits assumed): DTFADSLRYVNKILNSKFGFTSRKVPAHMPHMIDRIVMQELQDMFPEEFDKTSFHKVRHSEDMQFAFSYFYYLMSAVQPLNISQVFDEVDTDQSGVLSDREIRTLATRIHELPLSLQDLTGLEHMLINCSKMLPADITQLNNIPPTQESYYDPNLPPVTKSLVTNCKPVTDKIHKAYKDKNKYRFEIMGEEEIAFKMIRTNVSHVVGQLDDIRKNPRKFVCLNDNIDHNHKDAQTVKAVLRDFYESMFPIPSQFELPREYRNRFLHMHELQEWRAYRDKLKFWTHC

[4] = target: soluble S1S3, truncated hyperactive variant of human GlcNAc-1-phosphotransferase (PTase) αβ lacking both transmembrane domains and cytosolic tails (human | Dictyostelium discoideum); assay: cryo-EM structure; single-particle cryo-EM of purified soluble S1S3 at 0.8 mg/ml; 3.4 Å
[5] = substrate: CO[C@H]1O[C@H](CO)[C@@H](O)[C@H](O)[C@@H]1O; assay: UDP-[3H]GlcNAc radiolabel transfer assay, QAE-Sephadex; format: biochemical, Homo sapiens; conditions: saturating UDP-[3H]GlcNAc, Mn2+ and Mg2+, pH 7.4, 37 °C (general assay), mean of two assays

T2 sequence (Q3T906 929-1214 H959F limits assumed, one chain of several): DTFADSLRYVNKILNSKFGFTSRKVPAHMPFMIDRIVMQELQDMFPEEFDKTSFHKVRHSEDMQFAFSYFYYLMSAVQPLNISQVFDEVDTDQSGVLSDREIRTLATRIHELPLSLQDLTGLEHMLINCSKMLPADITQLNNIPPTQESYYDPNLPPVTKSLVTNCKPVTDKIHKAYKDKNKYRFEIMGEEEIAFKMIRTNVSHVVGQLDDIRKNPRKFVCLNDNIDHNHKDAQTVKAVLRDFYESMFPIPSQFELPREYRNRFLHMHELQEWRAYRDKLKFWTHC

Km (S1S3 [1]): 53.6 mM
Molecule: OC[C@H]1O[C@H](O[C@@H]2C(O)O[C@H](CO)[C@@H](O)[C@@H]2O)[C@@H](O)[C@@H](O)[C@@H]1O (stereo partly drawn) [mannobiose, 2-α-mannobiose]

Molecule: CO[C@H]1O[C@H](CO)[C@@H](O)[C@H](O)[C@@H]1O [α-MM, methyl α-D-mannopyranoside]
PTase activity assay, UDP-[3H]GlcNAc (S1S3 [2]; 100 mM α-MM): The His-279-Phe mutation caused a significant decrease in activity toward the three acceptors

Molecule: CC(=O)N[C@H]1[C@@H](OP(=O)(O)OP(=O)(O)OC[C@H]2O[C@@H](n3ccc(=O)[nH]c3=O)[C@H](O)[C@@H]2O)O[C@H](CO)[C@@H](O)[C@@H]1O [UDP-GlcNAc]
PTase activity assay, UDP-[3H]GlcNAc (Dm PTase): Dm PTase is capable of using UDP-GlcNAc as a nucleotide sugar donor
cryo-EM structure, 2.9 Å [3]: we resolved the cryo-EM structure of hPTase in the presence of the nucleotide donor sugar

Molecule: CC(=O)N[C@H]1[C@H](O[C@H]2[C@H](O)[C@@H](NC(C)=O)C(O)O[C@@H]2CO)O[C@H](CO)[C@@H](O[C@@H]2O[C@H](CO[C@H]3O[C@H](CO[C@H]4O[C@H](CO)[C@@H](O)[C@H](O)[C@@H]4O[C@H]4O[C@H](CO)[C@@H](O)[C@H](O)[C@@H]4O)[C@@H](O)[C@H](O[C@H]4O[C@H](CO)[C@@H](O)[C@H](O)[C@@H]4O[C@H]4O[C@H](CO)[C@@H](O)[C@H](O)[C@@H]4O)[C@@H]3O)[C@@H](O)[C@H](O[C@H]3O[C@H](CO)[C@@H](O)[C@H](O)[C@@H]3O[C@H]3O[C@H](CO)[C@@H](O)[C@H](O)[C@@H]3O[C@H]3O[C@H](CO)[C@@H](O)[C@H](O)[C@@H]3O)[C@@H]2O)[C@@H]1O (some centres unmarked) [Man-9, Man9GlcNAc2]
PTase activity assay, UDP-[3H]GlcNAc (S1S3 [2]; 0.34 mM Man-9): The His-279-Phe mutation caused a significant decrease in activity toward the three acceptors

stoichiometry N [4]: 2
Molecule: soluble S1S3, truncated hyperactive variant of human GlcNAc-1-phosphotransferase (PTase) αβ lacking both transmembrane domains and cytosolic tails (enzyme)

B1: hPTase-αβ (soluble full-length human GlcNAc-1-phosphotransferase) (Homo sapiens) (protein)
chain 1: T4 sequence (Q3T906 44-928 limits assumed)
chain 2: T4 sequence (Q3T906 929-1214 limits assumed)
notes: soluble secreted form of the alpha/beta precursor, cut by site-1 protease at K928/D929; no gamma subunit; dimer
Km [5]: 57,100 μM
kcat [5]: 0.153 s⁻¹
